Literature values in paper PMC12671102 (Drug Design, Development and Therapy, 2025).

Key:
subjects [1] = tested on: subjects
subjects [2] = conditions: Phase II study
[3] = moderate fat meal

SMILES: O=C(c1cc(Br)c(O)c(Br)c1)N1CCOc2ccncc21 [URC102]
- subjects with TEAEs (subjects [1]): 41%

SMILES: CC(C)(Sc1ccncc1-c1ccc(C#N)c2ccccc12)C(=O)O [verinurad]
- nephrolithiasis (subjects [2]): no nephrolithiasis
- subjects with increases in serum creatinine (subjects [2]): 17.1%
- effect of food on absorption [3]: delayed absorption
